Source: US5468615A, “Binding assay employing a synthetic gene for D4 dopamine receptors” (The Upjohn Company, priority 1993, dated 1995)

Tests used:
[1] = biological target: T1, synthetic D4 receptor (Homo sapiens, UniProt P21917, DEL265-296); experiment: (3H)spiperone radioligand binding, membranes of LacI (CHO) cells expressing synthetic D4 receptor (line D4-19); design: expressed in transfected cells; conditions: Scatchard transformation of saturation binding; line D4-19, IPTG induced
T1 sequence (P21917 with tags, fused parts or gaps DEL271-302): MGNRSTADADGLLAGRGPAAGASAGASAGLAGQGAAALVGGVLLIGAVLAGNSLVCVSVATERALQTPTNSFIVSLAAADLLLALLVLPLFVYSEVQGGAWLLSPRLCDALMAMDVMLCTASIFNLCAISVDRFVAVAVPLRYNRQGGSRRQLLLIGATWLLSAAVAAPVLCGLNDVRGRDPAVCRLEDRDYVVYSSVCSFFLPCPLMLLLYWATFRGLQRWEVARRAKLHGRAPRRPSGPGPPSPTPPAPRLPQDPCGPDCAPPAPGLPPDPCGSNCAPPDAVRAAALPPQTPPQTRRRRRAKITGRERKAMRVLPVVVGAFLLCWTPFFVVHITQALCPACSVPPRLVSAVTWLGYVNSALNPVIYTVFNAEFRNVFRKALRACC
Method: (§1) LacI synthetic D4 transfected cells were grown in the presence of 100 μM IPTG for 48 hours prior to harvest. Cells grown in 100 mm dishes were rinsed once with 5 mls of ice cold Ca^2+ /Mg^2+ free PBS and scraped into 5 mls of the same buffer. Cells were pelleted (500×g, 5 minutes), and resuspended in 25 mM Tris, 5 mM EDTA, 5 mM EGTA, pH 7.5 (TEE), and frozen in liquid nitrogen. After thawing, the cells were homogenized and centrifuged at 1,000×g to remove nuclei and unbroken cells. The supernatant was centrifuged at 20,000×g, the membrane pellet was washed once with TEE, resuspended in binding buffer, and frozen in liquid nitrogen. Membrane aliquots were stored at -70° C.
(§2) Incubations were for 1 hour at 30° C. Assays were stopped by filtration through Whatman GF/B filters followed by 2×10 ml washes with ice cold 50 mM Tris, pH 7.5. The filters were counted by liquid scintillation spectroscopy.

[2] = biological target: T1, synthetic D4 receptor; experiment: (3H)spiperone radioligand binding, membranes of HEK293 cells expressing synthetic D4 receptor (line D4-24); design: expressed in transfected cells; host or cells: HEK293 cells (EBV-based vector pCEP4), line D4-24
Method: Each point is the mean of duplicates with non-specific binding subtracted.
as §1, §2

[3] = test system: D4 receptors; conditions: CHO cells expressing D4 receptors
Method: AMP accumulation was measured in intact D4-19 cells plated at a density of 15,000 cells/well in a 24 well plate 48 hours prior to the experiment. The cells were incubated in serum free medium 1 hour prior to the experiment. Fresh medium (0.5 ml) containing 100 μM forskolin, 100 μM IBMX and varying concentrations of drugs were added to each well and cAMP was allowed to accumulate for 15 minutes at 30° C. The reactions were terminated by the removal of the medium and the addition of 100 μl cold 7.5% (TCA) trichloroacetic acid. The samples were diluted by the addition of 1.0 ml 50 mM sodium acetate, pH 6.2 and aliquots were assayed by RIA using Biomedical Technologies Incorporated cAMP RIA kit.
cAMP accumulation was measured in forskolin stimulated cells as described in methods. Dopamine (10 μM) was added to 3 wells (DA). […] The bars are the averages of the three wells expressed as the percentage of the forskolin response.

[4] = test system: schizophrenics; conditions: unlike other antipsychotic drugs; Casey (1989); cited from earlier work

O=C(CCCN1CCC2(CC1)C(=O)NCN2c1ccccc1)c1ccc(F)cc1 [(^3 H)-spiperone]
Bmax [1]: 260 fmol/mg protein
receptor expression over passages (3H-spiperone binding) ([2]; D4-24 cells, 540 pM 3H-spiperone, up to at least 12 passages over 10 weeks (FIG. 5)): remains constant
Bmax ([2]; Scatchard analysis of saturation binding, line D4-24 (FIG. 4)): 736 fmol/mg protein

CN1CCN(C2=Nc3cc(Cl)ccc3Nc3ccccc32)CC1 [clozapine]
antagonism of dopamine inhibition of cAMP accumulation ([3]; 10 μM clozapine with 10 μM dopamine (FIG. 6)): Antagonism
tardive dyskinesia [4]: does not cause tardive dyskinesia

NCCc1ccc(O)c(O)c1 [dopamine]
inhibition of cAMP accumulation ([3]; 10 μM dopamine, forskolin stimulated (FIG. 6)): Inhibition of cAMP accumulation
